Measured values from the NIST ThermoML archive (doi:10.1016/j.jct.2011.11.019).
± gives the expanded uncertainty stated by the source.

Test: xn = mol fraction of the nth substance listed
Details: 298.15 K, 101 kPa, Liquid, Vibrating tube method

OC(C(F)(F)F)C(F)(F)F [1,1,1,3,3,3-hexafluoro-2-propanol] + O
Details	mass density [kg/m3]
x1 = 0.1024	1261.96 ± 0.3
x1 = 0.205	1387.36 ± 0.31
x1 = 0.3016	1455.74 ± 0.32
x1 = 0.4067	1501.77 ± 0.36
x1 = 0.4929	1527.75 ± 0.41
x1 = 0.5943	1550.19 ± 0.47
x1 = 0.6411	1558.59 ± 0.5
x1 = 0.8065	1585.8 ± 0.62
x1 = 0.9005	1593.04 ± 0.69
